Read-outs that look alike come from different tables or passages of the source.
Target: T1, human GnRH receptor (Homo sapiens, UniProt P30968)
T1 construct: expressed in transfected cells; host or cells: HEK 293 (hGnRH-R/293, from Dr. Stuart Sealfon)
T1 sequence (P30968 1-328): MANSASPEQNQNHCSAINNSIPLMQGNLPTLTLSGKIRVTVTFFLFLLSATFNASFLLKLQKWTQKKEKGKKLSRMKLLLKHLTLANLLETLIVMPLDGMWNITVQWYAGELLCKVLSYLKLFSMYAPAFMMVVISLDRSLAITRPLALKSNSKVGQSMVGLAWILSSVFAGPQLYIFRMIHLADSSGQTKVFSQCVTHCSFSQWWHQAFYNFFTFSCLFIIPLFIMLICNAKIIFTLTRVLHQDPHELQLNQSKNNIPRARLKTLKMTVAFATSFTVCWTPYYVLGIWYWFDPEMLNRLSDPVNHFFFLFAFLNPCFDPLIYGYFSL
Assay: Radioligand binding, 125I-GnRH-A displacement, membranes of HEK 293 cells with human GnRH receptor
Conditions: for remaining activity at 10 µM / remaining activity at 1 µM: substrate remaining, closer to zero = closer to 100% inhibition; for remaining activity at 10 µM: 10 uM compound, read-out: S%R 10 uM hGnRHR; for IC50: read-out: hGnRH IC50; for remaining activity at 1 µM: 1 uM compound, read-out: S%R 1 uM hGnRHR
Description: All compounds were diluted in 1% DMSO (final assay concentration) in binding assay buffer. […] Reactions were terminated by rapid filtration onto 96-well Packard GF/C filters soaked in 0.1% polyethyleneimine. Filters were washed three times with PBS buffer, dried and counted on a Packard Topcount by liquid scintillation counting.
Assay conditions were identical for assessing compound activities at other species. […] IC50 values for control peptides and test compounds were calculated utilizing GraphPad Prism™ software.
Crude compounds were tested using the competitive radioligand binding assay described above.
The reaction mixture was vortexed and incubated for 1 min at room temperature. After one min, the mixture was vortexed and allowed to incubate for an additional minute. 2 ml of 0.5 M acetic acid/1% BSA was added to the reaction tube and the mixture was added to a C18 Sep-Pak cartridge. The cartridge was washed with subsequent washes of 5 ml H2O and 5 ml 0.5M acetic acid and then eluted with 5×1 ml of 60% CH3CN/40% 0.5M acetic acid. The eluate was diluted with 3× volume of HPLC buffer A (0.1% TFA in H2O) and loaded onto a C18 column. The iodinated product was eluted over 20-25 min with a gradient of 25-100% CH3CN containing 0.1% TFA. The radioactive fractions (750 ed/fraction) are collected into clean polypropylene tubes containing 100 μl of 10% BSA. Fractions were assessed for biological activity by radioligand binding.
S%R is the substrate remaining.

[1] = 1 uM, read-out: % Inhib. @ 1 uM hGnRH
[2] = 1 h, repeat of % Inhib. at 1 uM, read-out: Repeats @ 1 uM hGnRH

inhibition at 1 µM [1] [%] | inhibition at 1 µM [2] [%] | SMILES | other results
-10 | -6 | Cc1cc2c(cc1Cc1ccc(C(=O)N(C)[C@H](C)[C@H](O)c3ccccc3)o1)C(C)(C)CCC2(C)C | 
 |  | Cc1cc2c(cc1Cc1ccc(C(=O)Nc3nc(Cl)c4nc[nH]c4n3)o1)C(C)(C)CCC2(C)C [Compound 353] | remaining activity at 10 µM (1 h): -4%
-17 | -27 | Cc1cc2c(cc1Cc1ccc(C(=O)N[C@@H](CO)Cc3c[nH]cn3)o1)C(C)(C)CCC2(C)C | 
35 | 35 | Cc1cc2c(cc1Cc1ccc(C(=O)NCC3CCN(c4nccc(NCC5CCCO5)n4)CC3)o1)C(C)(C)CCC2(C)C (stereo not drawn) [drawing 1037] | 
 |  | COc1cc(OC)c(NC(=O)c2ccc(Cc3cc4c(cc3C)C(C)(C)CCC4(C)C)n2Cc2ccccc2)c(OC)c1 [Compound 224] | IC50: > 10000 nM
57 | 64 | Cc1cc2c(cc1Cc1ccc(C(=O)NCCc3ccc(N)cc3)o1)C(C)(C)CCC2(C)C [drawing 1017] | 
23 | 36 | COc1ccc(OC)c(CCNC(=O)c2ccc(Cc3cc4c(cc3C)C(C)(C)CCC4(C)C)o2)c1 [drawing 996] | 
-10 | -15 | Cc1cc2c(cc1Cc1ccc(C(=O)NC(CO)[C@H](O)c3ccc([N+](=O)[O-])cc3)o1)C(C)(C)CCC2(C)C (stereo partly drawn) | 
 |  | CCOc1ccc(NC(=O)c2ccc(Cc3cc4c(cc3C)C(C)(C)CCC4(C)C)o2)cc1 [Compound 338] | remaining activity at 10 µM (1 h): 26%
15 | 21 | Cc1cc2c(cc1Cc1ccc(C(=O)NCCc3cccc(Cl)c3)o1)C(C)(C)CCC2(C)C | 
-10 | -3 | Cc1cc2c(cc1Cc1ccc(C(=O)NCCc3ccc(O)c(O)c3)o1)C(C)(C)CCC2(C)C | 
 |  | COc1cccc(CCNC(=O)c2ccc(Cc3cc4c(cc3C)C(C)(C)CCC4(C)C)o2)c1OC [Compound 429] | remaining activity at 1 µM (1 h): 40%
20 | 23 | Cc1cc2c(cc1Cc1ccc(C(=O)N(C)[C@H](C)[C@@H](O)c3ccccc3)o1)C(C)(C)CCC2(C)C | 
 |  | Cc1cc2c(cc1Cc1ccc(C(=O)Nn3c(O)nnc3-c3ccncc3)o1)C(C)(C)CCC2(C)C | inhibition at 10 µM (repeat, read-out: Repeats @ 10 uM hGnRH (% inhib.)): -28%; inhibition at 10 µM (read-out: % inhib. @ 10 uM hGnRH): -17%
85 | 85 | COC(=O)CCCCCNC(=O)c1ccc(Cc2cc3c(cc2C)C(C)(C)CCC3(C)C)o1 [drawing 1059] | 
-2 | 6 | Cc1cc2c(cc1Cc1ccc(C(=O)N[C@H](C)[C@H](O)c3ccc(O)cc3)o1)C(C)(C)CCC2(C)C | 
 |  | Cc1cc2c(cc1Cc1ccc(C(=O)NC[C@H]3CCCO3)o1)C(C)(C)CCC2(C)C [Compound 57] | IC50: 830 nM
 |  | CCOC(=O)N1CCC(C)(C)c2c(Cc3ccc(C(=O)Nc4c(OC)cc(OC)cc4OC)o3)c(OC)cc(OC)c21 [Compound 200.5] | IC50: 1230 nM
 |  | Cc1ccc(CNC(=O)c2ccc(Cc3cc4c(cc3C)C(C)(C)CCC4(C)C)o2)cc1C [Compound 440] | remaining activity at 1 µM (1 h): 22%
 |  | COc1cc(C)c(Cl)c(C)c1Cc1ccc(C(N)=O)o1 [AXC- 07450] | IC50: > 10000 nM
-26 | 11 | Cc1cc2c(cc1Cc1ccc(C(=O)NCC(O)c3ccc(O)c(O)c3)o1)C(C)(C)CCC2(C)C (stereo not drawn) | 
7 | 9 | Cc1cc2c(cc1Cc1ccc(C(=O)N(Cc3ccccc3F)C3CCN(Cc4ccccc4)C3)o1)C(C)(C)CCC2(C)C (stereo not drawn) | 
42 | 44 | Cc1cc2c(cc1Cc1ccc(C(=O)NCCC#N)o1)C(C)(C)CCC2(C)C [drawing 1179] | 
-1 | -7 | Cc1cc2c(cc1Cc1ccc(C(=O)N3CCN(c4ccccc4Cl)CC3)o1)C(C)(C)CCC2(C)C | 

inhibition at 1 µM [1] [%] | inhibition at 1 µM [2] [%] | SMILES | other results
 |  | Cc1cc2c(cc1Cc1ccc(C(=O)Nc3nccs3)o1)C(C)(C)CCC2(C)C [Compound 334] | remaining activity at 10 µM (1 h): 34%
62 | 68 | Cc1cc2c(cc1Cc1ccc(C(=O)NCc3cccc(Br)c3)o1)C(C)(C)CCC2(C)C [drawing 1235] | 
 |  | COc1ccc(OC)c(Cc2ccc(C(=O)Nc3c(OC)cc(OC)cc3OC)o2)c1 [Compound 186] | IC50: 7310 nM
 |  | COC(CNC(=O)c1ccc(Cc2cc3c(cc2C)C(C)(C)CCC3(C)C)o1)OC [Compound 196] | IC50: 760 nM
-16 | -29 | Cc1cc2c(cc1Cc1ccc(C(=O)N3CCN(c4ncccc4C(F)(F)F)CC3)o1)C(C)(C)CCC2(C)C | 
 |  | COc1cc(OC)c(Cc2ccc(C(=O)Nc3c(OC)cccc3OC)o2)c(OC)c1 [Compound 220] | IC50: 630 nM
 |  | Cc1cc2c(cc1Cc1ccc(C(=O)Nc3c(C)cccc3C(C)C)o1)C(C)(C)CCC2(C)C [Compound 394] | remaining activity at 10 µM (1 h): 57%
-7 | 15 | COc1ccccc1CC(C)N(C)C(=O)c1ccc(Cc2cc3c(cc2C)C(C)(C)CCC3(C)C)o1 (stereo not drawn) | 
69 | 74 | Cc1cc2c(cc1Cc1ccc(C(=O)NCc3cccnc3)o1)C(C)(C)CCC2(C)C [drawing 1067] | 
-4 | 0 | Cc1cc2c(cc1Cc1ccc(C(=O)N(CCCO)Cc3ccccn3)o1)C(C)(C)CCC2(C)C [drawing 1107] | 
13 | 8 | Cc1cc2c(cc1Cc1ccc(C(=O)Nc3ccc4[nH]c(-c5ccccn5)nc4c3)o1)C(C)(C)CCC2(C)C [drawing 1002] | 
 |  | COc1cc(CNC(=O)c2ccc(Cc3cc4c(cc3C)C(C)(C)CCC4(C)C)o2)ccc1O [Compound 448] | remaining activity at 1 µM (1 h): 46%
 |  | CCc1cccc(C)c1NC(=O)c1ccc(Cc2cc3c(cc2C)C(C)(C)CCC3(C)C)o1 [Compound 399] | remaining activity at 10 µM (1 h): 41%
 |  | Cc1cc2c(cc1Cc1ccc(C(=O)NCCc3c[nH]cn3)o1)C(C)(C)CCC2(C)C [drawing 1051] | % Inhib. @ 1 uM hGnRH (1 uM): 32%; Repeats @ 1 uM hGnRH (repeat of % Inhib. at 1 uM): 36
 |  | Cc1cc2c(cc1Cc1ccc(C(=O)Nc3cccc4c(=O)[nH][nH]c(=O)c34)o1)C(C)(C)CCC2(C)C [Compound 387] | remaining activity at 10 µM (1 h): 52%
1 | 41 | Cc1cc2c(cc1Cc1ccc(C(=O)NCc3ccccc3OC(F)(F)F)o1)C(C)(C)CCC2(C)C | 
28 | 35 | Cc1cc2c(cc1Cc1ccc(C(=O)NC(C)c3ccc(F)cc3)o1)C(C)(C)CCC2(C)C (stereo not drawn) | 
-12 | 14 | Cc1cc2c(cc1Cc1ccc(C(=O)NC3CCN(Cc4ccccc4)CC3)o1)C(C)(C)CCC2(C)C | 
16 | 23 | Cc1cc2c(cc1Cc1ccc(C(=O)NCCc3ccc(Cl)cc3Cl)o1)C(C)(C)CCC2(C)C [drawing 998] | 
20 | 22 | Cc1cc2c(cc1Cc1ccc(C(=O)N(C)CC(O)c3ccccc3)o1)C(C)(C)CCC2(C)C (stereo not drawn) | 
-6 | 0 | Cc1cc2c(cc1Cc1ccc(C(=O)NC3COC(C)(C)O[C@H]3c3ccccc3)o1)C(C)(C)CCC2(C)C (stereo partly drawn) | 
11 | 6 | Cc1cc2c(cc1Cc1ccc(C(=O)NCc3ccccc3C(F)(F)F)o1)C(C)(C)CCC2(C)C [drawing 997] | 
69 | 71 | Cc1cc2c(cc1Cc1ccc(C(=O)NCc3ccc(F)cc3)o1)C(C)(C)CCC2(C)C [drawing 1135] | 

From patent publication US7101878B1 (Agouron Pharmaceuticals, Inc., priority 1998, dated 2006)
